Calls of active or inactive are those of the source. The rule behind the calls is not given here.
Columns and labels:
Assay type in all cases: functional, cell-based
[1] = biological target: T1, Taste receptor type 2 member 50 (Homo sapiens) (UniProt P59544); experiment: Antagonist activity at recombinant human N-terminal rat ST3 receptor-fused TAS2R50 expressed in HEK293T cells co-expressing Galpha16gust44 assessed as inhibition of andrographolide-induced increase in intracellular calcium level at 100 uM by FLIPR assay
T1 sequence (whole entry): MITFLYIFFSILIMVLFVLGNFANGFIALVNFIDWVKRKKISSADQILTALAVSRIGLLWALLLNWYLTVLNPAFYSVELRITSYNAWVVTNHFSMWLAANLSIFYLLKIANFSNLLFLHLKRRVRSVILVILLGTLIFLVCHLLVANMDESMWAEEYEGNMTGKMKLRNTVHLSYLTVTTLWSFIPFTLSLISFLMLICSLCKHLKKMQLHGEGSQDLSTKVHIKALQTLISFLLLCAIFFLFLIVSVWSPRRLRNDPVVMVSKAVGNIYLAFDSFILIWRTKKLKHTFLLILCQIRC

[2] = biological target: T2, Taste receptor type 2 member 9 (Homo sapiens) (UniProt Q9NYW1); experiment: Antagonist activity at recombinant human N-terminal rat ST3 receptor-fused TAS2R9 expressed in HEK293T cells co-expressing Galpha16gust44 assessed as inhibition of ofloxacin-induced increase in intracellular calcium level at 100 uM by FLIPR assay
T2 sequence (whole entry): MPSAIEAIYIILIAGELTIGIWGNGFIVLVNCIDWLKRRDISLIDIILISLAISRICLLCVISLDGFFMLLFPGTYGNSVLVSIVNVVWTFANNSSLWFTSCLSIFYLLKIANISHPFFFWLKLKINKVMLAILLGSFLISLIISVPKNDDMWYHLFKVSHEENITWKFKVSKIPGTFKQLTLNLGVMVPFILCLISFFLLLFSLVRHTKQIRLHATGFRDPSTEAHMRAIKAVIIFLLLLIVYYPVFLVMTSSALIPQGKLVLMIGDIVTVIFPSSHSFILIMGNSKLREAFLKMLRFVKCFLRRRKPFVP

[3] = biological target: T3, Taste receptor type 2 member 14 (Homo sapiens) (UniProt Q9NYV8); experiment: Agonist activity at recombinant human N-terminal rat ST3 receptor-fused TAS2R14 expressed in HEK293T cells co-expressing Galpha16gust44 assessed as increase in intracellular calcium level at 100 uM by FLIPR assay
T3 sequence (whole entry): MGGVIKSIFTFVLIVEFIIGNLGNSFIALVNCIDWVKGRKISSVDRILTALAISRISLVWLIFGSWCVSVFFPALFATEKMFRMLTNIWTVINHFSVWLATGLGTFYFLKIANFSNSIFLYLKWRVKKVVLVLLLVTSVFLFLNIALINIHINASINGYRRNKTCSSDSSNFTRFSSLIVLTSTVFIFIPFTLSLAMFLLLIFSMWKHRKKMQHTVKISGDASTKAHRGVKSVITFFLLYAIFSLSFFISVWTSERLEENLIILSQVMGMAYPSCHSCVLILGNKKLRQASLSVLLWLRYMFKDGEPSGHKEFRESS

[4] = biological target: T4, Taste receptor type 2 member 20 (Homo sapiens) (UniProt P59543); experiment: Antagonist activity at recombinant human N-terminal rat ST3 receptor-fused TAS2R49 expressed in HEK293T cells co-expressing Galpha16gust44 assessed as inhibition of cromolyn-induced increase in intracellular calcium level at 100 uM by FLIPR assay
T4 sequence (whole entry): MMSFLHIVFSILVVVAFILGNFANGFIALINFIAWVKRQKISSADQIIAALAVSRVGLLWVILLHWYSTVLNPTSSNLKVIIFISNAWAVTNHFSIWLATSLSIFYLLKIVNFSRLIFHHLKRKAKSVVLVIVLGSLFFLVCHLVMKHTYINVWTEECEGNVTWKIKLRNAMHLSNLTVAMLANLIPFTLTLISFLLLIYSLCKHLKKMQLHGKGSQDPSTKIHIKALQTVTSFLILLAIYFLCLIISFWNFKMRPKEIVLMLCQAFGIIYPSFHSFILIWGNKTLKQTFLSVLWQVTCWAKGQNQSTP

[5] = biological target: T5, Taste receptor type 2 member 30 (Homo sapiens) (UniProt P59541); experiment: Antagonist activity at recombinant human N-terminal rat ST3 receptor-fused TAS2R47 expressed in HEK293T cells co-expressing Galpha16gust44 assessed as inhibition of brucine-induced intracellular calcium level at 100 uM by FLIPR assay
T5 sequence (whole entry): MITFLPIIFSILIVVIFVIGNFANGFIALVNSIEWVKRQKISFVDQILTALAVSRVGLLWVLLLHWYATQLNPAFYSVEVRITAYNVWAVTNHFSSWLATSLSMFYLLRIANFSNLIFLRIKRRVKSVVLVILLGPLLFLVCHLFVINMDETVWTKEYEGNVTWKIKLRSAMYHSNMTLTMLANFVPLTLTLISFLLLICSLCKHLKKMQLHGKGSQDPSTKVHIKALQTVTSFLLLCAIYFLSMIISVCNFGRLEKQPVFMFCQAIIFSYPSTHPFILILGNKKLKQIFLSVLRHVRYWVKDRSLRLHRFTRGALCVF

[6] = biological target: T6, Taste receptor type 2 member 38 (Homo sapiens) (UniProt P59533); experiment: Antagonist activity at recombinant human N-terminal rat ST3 receptor-fused TAS2R38 expressed in HEK293T cells co-expressing Galpha16gust44 assessed as inhibition of phenylthiocarbamide-induced increase in intracellular calcium level at 100 uM by FLIPR assay
T6 sequence (whole entry): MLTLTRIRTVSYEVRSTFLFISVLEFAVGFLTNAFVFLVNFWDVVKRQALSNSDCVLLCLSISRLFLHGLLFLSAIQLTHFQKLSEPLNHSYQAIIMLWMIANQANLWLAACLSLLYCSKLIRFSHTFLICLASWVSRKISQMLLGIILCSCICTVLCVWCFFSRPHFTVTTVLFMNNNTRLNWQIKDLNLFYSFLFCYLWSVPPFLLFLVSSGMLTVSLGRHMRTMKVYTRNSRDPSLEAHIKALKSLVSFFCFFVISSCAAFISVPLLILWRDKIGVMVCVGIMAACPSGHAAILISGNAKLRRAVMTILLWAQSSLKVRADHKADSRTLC

[7] = biological target: T7, Taste receptor type 2 member 4 (Homo sapiens) (UniProt Q9NYW5); experiment: Antagonist activity at recombinant human N-terminal rat ST3 receptor-fused TAS2R4 expressed in HEK293T cells co-expressing Galpha16gust44 assessed as inhibition of colchicine-induced increase in intracellular calcium level at 100 uM by FLIPR assay
T7 sequence (whole entry): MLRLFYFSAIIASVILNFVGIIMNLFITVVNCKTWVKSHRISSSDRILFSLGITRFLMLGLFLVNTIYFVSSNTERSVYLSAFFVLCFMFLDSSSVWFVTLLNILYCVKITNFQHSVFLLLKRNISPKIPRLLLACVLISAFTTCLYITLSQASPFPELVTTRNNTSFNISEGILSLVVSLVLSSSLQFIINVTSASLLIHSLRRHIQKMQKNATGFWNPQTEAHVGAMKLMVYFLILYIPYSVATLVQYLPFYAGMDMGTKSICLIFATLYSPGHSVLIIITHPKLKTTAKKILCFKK

Compound: C/C1=C\C[C@H](O)[C@@H](C)C[C@H]2OC(=O)[C@@H](C)[C@@H]2CC1
- inhibition [1]: inactive
- inhibition [2]: inactive
- Activity [3]: Active
- inhibition [4]: inactive
- inhibition [5]: Active
- inhibition [6]: inactive
- inhibition [7]: inactive

Compound: C/C1=C\C[C@H](O)/C(C)=C/[C@H]2OC(=O)[C@@H](C)[C@@H]2CC1
- inhibition [1]: inactive
- inhibition [2]: inactive
- Activity [3]: Active
- inhibition [4]: inactive
- inhibition [5]: Active
- inhibition [6]: inactive
- inhibition [7]: inactive
